Measurements taken from patent publication US20230125667A1, “NOVEL TDZD ANALOGS AS AGENTS THAT DELAY, PREVENT, OR REVERSE AGE-ASSOCIATED DISEASES AND AS ANTI-CANCER AND ANTILEUKEMIC AGENTS” (United States Government as represented by the Department …, priority 2020, published 2023).
Entries after “also recorded” stand apart in the source; their conditions may differ.

Experiments:
[1] = system: tau hyperphosphorylation; test: Tau hyperphosphorylation in rat cortical cells; format: cell-based; conditions: FIG. 23
Procedure: Microtubule assembly involves stable tau binding to other proteins in the complex, including tubulin. Hyperphosphorylated tau is readily sequestered into aggregates and generates intracellular neurofibrillary tangles (“tau tangles”). […] The top drugs were tested for impact on tau hyperphosphorylation in rat cortical cells (FIG. 23).
Primary cultures were established from cerebral cortex of E18 rats; under serum-free conditions (Neurobasal/B27) these cultures contain ˜85% neurons, with the remainder comprising astrocytes (˜12% and microglia ˜3%). At the […], triplicate cultures were exposed to the test compounds at the indicated concentrations; a separate triplicate was exposed to vehicle (0.5% DMSO final concentration). After 24 h, cultures were washed once with ice-cold PBS and then scraped in RIPA buffer containing inhibitors of proteases and phosphatases. Lysates were centrifuged at 14,000 g at 4° C. for 7 min. Supernatants were removed and stored at −80° C. after removal of small aliquots for determination of protein concentration by BCA. Samples equilibrated for total protein were analyzed by Wes™ capillary-gel immunodetection (ProteinSimple) using the AT8 clone of anti-phosphoTau (Invitrogen MN 1020) or total Tau (ABclonal A0002). Detected antigen was calculated by peak area (automated peak fit), and values are reported as AT8 normalized to total Tau.

[2] = system: C. elegans strain AM141; test: Q40::YFP aggregates in C. elegans strain AM141; format: in vivo
Procedure: Several TDZD-conjugated drugs (putative GSK-3 inhibitors) were evaluated for their ability to reduce accumulation of protein aggregates, and for protection against aggregation-associated end-points in the following model systems: (i.) SH-SY5Y-APPSw, a neuroblastoma cell line expressing the Swedish mutation of Amyloid Precursor Protein (APPSw), and thus predisposed to form β-amyloid deposits; (ii.) C. elegans strain CL4176, a model of Alzheimer-like amyloidopathy that can be induced to express human Aβ1-42 in muscle, or may express it at a lower level without induction; (iii.) C. elegans strain AM141, a model of Huntington-like polyglutamine aggregation that constitutively expresses Q40::YFP (a tract of 40 glutamines fused in-frame to yellow fluorescent protein) in muscle cells and forms aggregates progressively with adult aging. The TDZD analog PNR-962 (a putative GSK-3 inhibitor) and other related compounds (not shown) were protective in all aggregation assays.
Fresh agar plates supporting bacterial lawns, which serve as food for C. elegans, were prepared at least 1 day ahead of use. C. elegans AM141 (forming Q40::YFP aggregates in muscle, progressively in early adulthood) were placed on these 100-mm plates. Day-4 adult worms were lysed with alkaline hypochlorite solution to obtain eggs from worms, a procedure that permits synchronization of worms in a cohort. Eggs were placed on plates spotted with different concentrations of TDZD analogues after allowing the compounds to be evenly distributed on the plates (˜1 hour after adding drugs to plates). Vehicle-only (DMSO) controls are included in each experiment, as a baseline for drug effects in experimental groups. Young-adult AM141 (day-3 adults) were transferred on alternate days onto fresh plates that contained the same doses of compounds, with fresh E. coli to prevent starvation of worms. Equal samples (n=25) were randomly picked from experimental groups and control group for microscopic imaging. Using an in-house plugin for ImageJ software (NIH), several images of AM141 were processed for aggregate count per worm. The fluorescence intensity of each aggregate (indicating the size/content of protein aggregates) was also measured. Each drug treatment was repeated multiple times to validate the results.

SMILES: O=c1sn(CCI)c(=O)n1Cc1ccccc1 [PNR-962]
- tau hyperphosphorylation [1]: suppression of tau hyperphosphorylation
- number of Q40::YFP aggregates ([2]; 5-μM, 3 days of exposure (FIG. 6)): reduces huntingtin-like aggregates; also recorded: reduced the number of aggregates significantly
- number of aggregation foci ([2]; C. elegans model of Huntington's Disease (FIG. 7)): decreases
- aggregate intensity (content of Q40-YFP) ([2]; not shown): reduced aggregate intensity
